Data from US20170158697A1, “Protein Kinase Inhibitors” (Pharmascience Inc., priority 2013, published 2017).

Key:
[1] = test system: splenocytes from CD1 mice; test: Splenic cell proliferation assay (anti-IgM stimulated, Cell Titer-Glo); assay type: cell-based; conditions: Splenocyte; mouse splenocytes, 2.5 ug/ml anti-IgM F(ab')2 for 72 h; read-out: Inhibition of splenic cell proliferation, EC50
Description: Splenic Cell Proliferation Assay
Proliferation of splenocytes in response to anti-IgM can be blocked by inhibition of Btk. Splenocytes were obtained from 6 week old male CD1 mice (Charles River Laboratories Inc.). Mouse spleens were manually disrupted in PBS and filtered using a 70 um cell strainer followed by ammonium chloride red blood cell lysis. Cells were washed, resuspended in Splenocyte Medium (HyClone RPMI supplemented with 10% heat-inactivated FBS, 0.5× non-essential amino acids, 10 mM HEPES, 50 uM beta mercaptoethanol) and incubated at 37° C., 5% CO2 for 2 h to remove adherent cells. Suspension cells were seeded in 96 well plates at 50,000 cells per well and incubated at 37° C., 5% CO2 for 1 h. Splenocytes were pre-treated in triplicate with 10,000 nM curves of Formula I compounds for 1 h, followed by stimulation of cell proliferation with 2.5 ug/ml anti-IgM F(ab′)2 (Jackson ImmunoResearch) for 72 h. Cell proliferation was measured by Cell Titer-Glo Luminescent Assay (Promega). EC50 values (50% proliferation in the presence of compound as compared to vehicle treated controls) were calculated from dose response compound curves using GraphPad Prism Software.

[2] = target: T1, histidine tagged recombinant human full-length Bruton Agammaglobulinemia Tyrosine Kinase (Btk) (Homo sapiens, UniProt Q06187); test: Btk kinase inhibition assay, Method A (fluorescence polarization, KinEASE FP Fluorescein Green); assay type: biochemical; conditions: 10 μM ATP, 250 μM substrate, 60 minutes, Ki by Cheng-Prusoff from IC50, read-out: Inhibition of Btk, EC50 (nM) (legend: Ki)
T1 construct: histidine tagged recombinant human full-length Bruton Agammaglobulinemia Tyrosine Kinase (Btk); His tag
Description: Fluorescence polarization-based kinase assays were performed in 384 well-plate format using histidine tagged recombinant human full-length Bruton Agammaglobulinemia Tyrosine Kinase (Btk) and a modified protocol of the KinEASE™ FP Fluorescein Green Assay supplied from Millipore®. Kinase reaction were performed at room temperature for 60 minutes in presence of 250 μM substrate, 10 μM ATP and variable test article concentrations. The reaction was stopped with EDTA/kinease detection reagents. Phosphorylation of the substrate peptide was detected by fluorescence polarization measured with a Tecan 500 instrument. From the dose-response curve obtained, the IC50 was calculated using Graph Pad Prisms® using a non linear fit curve. The Km for ATP on each enzyme was experimentally determined and the Ki values calculated using the Cheng-Prusoff equation (see: Cheng Y, Prusoff W. H. (1973) Relationship between the inhibition constant (K1) and the concentration of inhibitor which causes 50% inhibition (I50) of an enzymatic reaction”. Biochem Pharmacol 22 (23): 3099-108). ki values are reported in Tables 2a and 2b: […]

human BTK kinase (hBTK) = target: T2, human BTK kinase (hBTK) (Homo sapiens, UniProt Q06187); test: Btk kinase inhibition assay, Method B (KinaseProfiler radiometric protein kinase assay, Eurofins); assay type: biochemical; conditions: 40 minutes, 250 μM substrate
T2 construct: purchased Eurofins Pharma Discovery Services UK Limited (assay service)
Description: In vitro potency of selected compound was defined against human BTK kinase (hBTK) using KinaseProfiler radiometric protein kinase assays performed at Eurofins Pharma Discovery Services UK Limited.
hBTK kinase is diluted in buffer and all compounds were prepared to 50× final assay concentration in 100% DMSO. This working stock of the compound was added to the assay well as the first component in the reaction, followed by the remaining components as detailed in the assay protocol listed above. The reaction was initiated by the addition of the MgATP mix. The kinase reaction was performed at room temperature for 40 minutes in presence of 250 μM substrate, 10 mM MgAcetate, [γ-33P-ATP] (specific activity approx. 500 cpm/pmol, concentration as required) and variable test article concentrations. The ATP concentrations in the assays were with 15 μM of the apparent. The reaction was stopped by the addition of 3% phosphoric acid solution. 10 μL of the reaction is then spotted onto a P30 filtermat and washed three times for 5 minutes in 75 mM phosphoric acid and once in methanol prior to drying and scintillation counting. In addition positive control wells contain all components of the reaction, except the compound of interest; however, DMSO (at a final concentration of 2%) were included in these wells to control for solvent effects as well as blank wells contain all components of the reaction, with a reference inhibitor replacing the compound of interest. This abolishes kinase activity and establishes the base-line (0% kinase activity remaining). The potency of each compound was reported by estimating the EC50.

T1 sequence (Q06187 whole entry): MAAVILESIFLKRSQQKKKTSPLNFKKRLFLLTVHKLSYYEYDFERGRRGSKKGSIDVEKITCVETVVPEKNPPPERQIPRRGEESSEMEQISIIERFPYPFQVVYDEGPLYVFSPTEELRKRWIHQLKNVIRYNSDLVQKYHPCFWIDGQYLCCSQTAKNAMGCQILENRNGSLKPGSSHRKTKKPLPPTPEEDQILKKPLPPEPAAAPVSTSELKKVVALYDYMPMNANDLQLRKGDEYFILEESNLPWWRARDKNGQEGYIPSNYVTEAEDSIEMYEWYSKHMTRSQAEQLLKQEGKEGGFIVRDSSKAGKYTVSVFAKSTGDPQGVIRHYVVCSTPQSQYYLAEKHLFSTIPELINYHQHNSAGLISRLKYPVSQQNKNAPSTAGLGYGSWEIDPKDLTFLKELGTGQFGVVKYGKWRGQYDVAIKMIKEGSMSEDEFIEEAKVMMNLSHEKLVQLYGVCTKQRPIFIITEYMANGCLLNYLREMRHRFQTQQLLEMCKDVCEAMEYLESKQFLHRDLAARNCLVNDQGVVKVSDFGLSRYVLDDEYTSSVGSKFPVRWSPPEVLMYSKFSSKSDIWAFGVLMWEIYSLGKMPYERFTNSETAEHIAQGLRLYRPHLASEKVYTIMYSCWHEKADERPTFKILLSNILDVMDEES
T2 sequence (Q06187 whole entry): as above

| SMILES | Ki [2] | EC50 (human BTK kinase (hBTK)) | EC50 [1] |
| --- | --- | --- | --- |
| Cc1ncc(COc2cc(F)cc(Oc3ccc(-c4cn(C[C@H]5CCCN5)c5ncnc(N)c45)cc3)c2)cn1 [Compound 10] | 100 to 1000 nM | – | 100 to 1000 nM |
| Cc1ncc(COc2cc(Oc3ccc(-c4cn(C(C)C)c5ncnc(N)c45)cc3)ccc2F)cn1 [Compound 15] | 100 to 1000 nM | – | 100 to 1000 nM |
| CC(C)n1cc(-c2ccc(Oc3cc(F)cc(OCc4cncnc4)c3)cc2)c2c(N)ncnc21 [Compound 17] | < 100 nM | – | < 100 nM |
| Cc1ncc(COc2cc(F)cc(Oc3ccc(-c4cn([C@H]5C[C@@](C)(O)C5)c5ncnc(N)c45)cc3)c2)cn1 [Compound 18] | < 100 nM | – | < 100 nM |
| Cc1ncc(COc2cccc(Oc3ccc(-c4cn(C(C)C)c5ncnc(N)c45)cc3)c2F)cn1 [Compound 19] | – | < 100 nM | < 100 nM |
| CC(C)n1cc(-c2ccc(Oc3cc(F)cc(OCc4cnc(CO)nc4)c3)cc2)c2c(N)ncnc21 [Compound 20] | – | < 100 nM | 100 to 1000 nM |
| CC(C)n1cc(-c2ccc(Oc3cc(F)cc(OCc4ccc(CO)nc4)c3)cc2)c2c(N)ncnc21 [Compound 21] | – | < 100 nM | < 100 nM |
| CC(=O)N1CCC[C@@H]1Cn1cc(-c2ccc(Oc3cc(F)cc(OCc4cnc(C)nc4)c3)cc2)c2c(N)ncnc21 [Compound 22] | – | < 100 nM | 100 to 1000 nM |
| Cc1ncc(COc2cc(F)cc(Oc3ccc(-c4cn([C@H]5C[C@@H](N6CCOCC6)C5)c5ncnc(N)c45)cc3)c2)cn1 [Compound 23] | < 100 nM | – | < 100 nM |
| Cc1ncc(COc2cc(F)cc(Oc3ccc(-c4cn(C(C)(C)CO)c5ncnc(N)c45)cc3)c2)cn1 [Compound 24] | – | 100 to 1000 nM | < 100 nM |
| CC(=O)N1CCC[C@@H](n2cc(-c3ccc(Oc4cc(F)cc(OCc5cnc(C)nc5)c4)cc3)c3c(N)ncnc32)C1 [Compound 25] | – | < 100 nM | < 100 nM |
| Cc1ncc(COc2cc(F)cc(Oc3ccc(-c4cn([C@H]5C[C@@H](O)C5)c5ncnc(N)c45)cc3)c2)cn1 [Compound 26] | – | < 100 nM | < 100 nM |

More lines, main results first:

| Ki [2] | EC50 (human BTK kinase (hBTK)) | SMILES | EC50 [1] |
| --- | --- | --- | --- |
| < 100 nM | – | Cc1ncc(COc2cc(F)cc(Oc3ccc(-c4cn(C(C)C)c5ncnc(N)c45)cc3)c2)s1 [Compound 1] | < 100 nM |
| < 100 nM | – | Cc1ccc(COc2cc(F)cc(Oc3ccc(-c4cn(C(C)C)c5ncnc(N)c45)cc3)c2)cn1 [Compound 2] | < 100 nM |
| < 100 nM | – | Cc1ncc(COc2cc(F)cc(Oc3ccc(-c4cn(C(C)C)c5ncnc(N)c45)cc3)c2)cn1 [Compound 3] | < 100 nM |
| < 100 nM | – | Cc1ccc(COc2cc(F)cc(Oc3ccc(-c4cn(C5CCOCC5)c5ncnc(N)c45)cc3)c2)cn1 [Compound 4] | < 100 nM |
| < 100 nM | – | Cc1ncc(COc2cc(F)cc(Oc3ccc(-c4cn(C5CCOCC5)c5ncnc(N)c45)cc3)c2)s1 [Compound 5] | < 100 nM |
| < 100 nM | – | Cc1ncc(COc2cc(F)cc(Oc3ccc(-c4cn(C5CCOCC5)c5ncnc(N)c45)cc3)c2)cn1 [Compound 6] | < 100 nM |
| < 100 nM | – | Cc1ncc(COc2cc(F)cc(Oc3ccc(-c4cn(C[C@@H]5CCCN5)c5ncnc(N)c45)cc3)c2)s1 [Compound 7] | 100 to 1000 nM |
| < 100 nM | – | Cc1ncc(COc2cc(F)cc(Oc3ccc(-c4cn(C[C@@H]5CCCN5)c5ncnc(N)c45)cc3)c2)cn1 [Compound 8] | 100 to 1000 nM |
| < 100 nM | – | CC(C)n1cc(-c2ccc(Oc3cc(F)cc(OCc4ccccc4)c3)cc2)c2c(N)ncnc21 [Compound 9] | 100 to 1000 nM |
| < 100 nM | – | Cc1ncc(COc2ccc(F)c(Oc3ccc(-c4cn(C(C)C)c5ncnc(N)c45)cc3)c2)cn1 [Compound 11] | 100 to 1000 nM |
| < 100 nM | – | CCCc1ncc(COc2cc(F)cc(Oc3ccc(-c4cn(C(C)C)c5ncnc(N)c45)cc3)c2)cn1 [Compound 12] | 100 to 1000 nM |
| < 100 nM | – | CC(C)c1ncc(COc2cc(F)cc(Oc3ccc(-c4cn(C(C)C)c5ncnc(N)c45)cc3)c2)cn1 [Compound 13] | 100 to 1000 nM |
| < 100 nM | – | CC(C)n1cc(-c2ccc(Oc3cc(F)cc(OCc4cnc(C5CC5)nc4)c3)cc2)c2c(N)ncnc21 [Compound 14] | 100 to 1000 nM |
